Data on 4 compounds can be found in US7449301B2, “Pharmaceutical composition and method for activating macrophage using the same” (National University Corporation Gunma University, priority 2004, dated 2008).

SMILES strings stand for the structures.

Common to all, as to type: cell-based, mouse
Experiment [1] deals with peritoneal macrophages (PEMs). Description: Phagocytosis assay of PEMs with RBCs (phagocytosis index). The note with it: PEMs preincubated 30 min with ML-7 10 μM or BDM 50 mM; IgG-opsonized RBCs 5 min; FIG. 3.
Experiment [2] has as its system PEMs. Description: Immunocytofluorescence of PEMs (morphology, F-actin, activated MAPK). Particulars: PEMs treated with mAb80 in presence of inhibitor; FIG. 4B. The protocol: PEMs treated with rat IgG, mAb80 or mAb84 were fixed for 20 to 30 min at room temperature in PBS containing 4% paraformaldehyde and 0.1% glutaraldehyde, and were then permeabilized for 60 min at room temperature in PBS containing 0.1% Triton X-100 and 5% goat serum (blocking solution). After incubation for 1 h at room temperature or overnight at 4° C. with primary antibody (anti-activated MAPK antibody) diluted in blocking solution, the cells were washed with PBS and incubated for 1 h at room temperature with Alexa488-conjugated secondary antibodies (Molecular Probes) diluted in blocking solution. For visualization of F-actin, cells were incubated with rhodamine-conjugated phalloidin (Molecular Probes) together with the secondary antibodies. The cells were finally washed with PBS and mounted. Fluorescence images were acquired with a laser-scanning confocal microscope (LSM5 PASCAL, Zeiss) (FIG. 4).

The test system of experiment [3] is MAPK. In words: Immunoblot of activated (phosphorylated) MAPK in PEMs. The note with it: 50 μM PD98059 or 2 μM U0126, FIG. 2B, C bottom. The procedure: PEMs were treated with anti-SIRPβ antibody or control IgG, and a secondary antibody, and incubated at 37° C. for 10 min. As a positive control, PEMs were incubated at 37° C. for 10 min in the presence of M-CSF (macrophage colony stimulating factor) (10 ng/ml). As a negative control, non-treated PEMs were used. Then, cells were lysed and subjected to immunoblot analysis using an anti-MAPK antibody (αMAPK), anti-activated (phosphorylated) MAPK antibody (αpMAPK), anti-MEK antibody (αMEK) or anti-activated MEK antibody (αpMEK) (FIG. 2A).
Then, the MEK inhibitors, PD98059 and U0126 were used to examine the role of MAPK-MEK pathway in the macrophage activation by an anti-SIRPβ antibody. PEMs were incubated in the presence or absence of 50 μM PD98059 or 2 μM U0126 at 37° C. for 30 min, and then treated with an anti-SIRPβ antibody or control IgG, and a secondary antibody. After incubation with IgG-opsonized RBCs at 37° C. for 5 min, cells were fixed and phagocytosis index was calculated (FIG. 2B, C; upper figures). On the other hand, PEMs were treated with an anti-SIRPβ antibody or control IgG, and a secondary antibody in the presence or absence of the inhibitors, followed by an analysis using an anti-MAPK antibody (αMAPK) and an anti-activated (phosphorylated) MAPK antibody (αpMAPK) (FIG. 2B, C; bottom figures). […]
Background: A western blot detects proteins with antibodies after separation by electrophoresis.

`CC(=O)C(C)=NO` [BDM, 2,3-butanedione 2-monoxime]: the “effect of inhibitor on anti-SIRPβ antibody activation of macrophage-mediated phagocytosis” value in experiment [1] is “attenuated the activation of macrophages-mediated phagocytosis”.
For `O=S(=O)(c1cccc2c(I)cccc12)N1CCCNCC1` [ML-7], the “effect of inhibitor on anti-SIRPβ antibody activation of macrophage-mediated phagocytosis” value in experiment [1] was “attenuated the activation of macrophages-mediated phagocytosis”. Also, the “effect of inhibitor on morphological change of PEMs induced by anti-SIRPβ antibody” value in experiment [2] is on record as “markedly inhibited”.
On to `COc1cccc(-c2cc(=O)c3ccccc3o2)c1N` [PD98059], for which the “activation of MAPK by mAb80 and mAb84 in the presence of MEK inhibitor” value in experiment [3] is “did not occur”. The “effect of inhibitor on morphological change of PEMs induced by anti-SIRPβ antibody” value in experiment [2] was “markedly inhibited”.
As to `N#CC(=C(/N)Sc1ccccc1N)/C(C#N)=C(\N)Sc1ccccc1N` [U0126], in experiment [3], the “activation of MAPK by mAb80 and mAb84 in the presence of MEK inhibitor” value was “did not occur”.
